Measurements reported in patent US20100273189A1, “NON SEPARATION ASSAYS WITH SELECTIVE SIGNAL INHIBITORS” (BECKMAN COULTER, INC., priority 2009, published 2010).

Key:
CK-MB = assay: Effect of trigger pH: CK-MB on LodeStars with ascorbate; type: biochemical; details: pH 9.0 (8.6), S5, CK-MB 268750 ng/ml
Experimental: (§1) B. In order to determine the effect of trigger solution pH on a variety of test assay systems, a series of experiments were conducted varying trigger pH. […] In the tables, two pH values are listed for each data set. The first is the pH of the buffer sample added to the reaction mixture. The second is the resulting pH of the final reaction mix.

TnI = assay: Effect of trigger pH: TnI on LodeStars with ascorbate; type: biochemical
Experimental: as §1

[1] = Control (7.5), S1, TnI 172 ng/ml
[2] = Control (7.5), S2, TnI 366 ng/ml
[3] = Control (7.5), S3, TnI 1368 ng/ml
[4] = Control (7.5), S4, TnI 11136 ng/ml
[5] = Control (7.5), S5, TnI 27922 ng/ml
[6] = Control (7.5), S6, TnI 10600 ng/ml
[7] = pH 6.0 (5.9), S1, TnI 172 ng/ml
[8] = pH 6.0 (5.9), S2, TnI 366 ng/ml
[9] = pH 6.0 (5.9), S3, TnI 1368 ng/ml
[10] = pH 6.0 (5.9), S4, TnI 11136 ng/ml
[11] = pH 6.0 (5.9), S5, TnI 27922 ng/ml
[12] = pH 6.0 (5.9), S6, TnI 10600 ng/ml
[13] = pH 7.0 (7.1), S1, TnI 172 ng/ml
[14] = pH 7.0 (7.1), S2, TnI 366 ng/ml
[15] = pH 7.0 (7.1), S3, TnI 1368 ng/ml
[16] = pH 7.0 (7.1), S4, TnI 11136 ng/ml
[17] = pH 7.0 (7.1), S5, TnI 27922 ng/ml
[18] = pH 7.0 (7.1), S6, TnI 10600 ng/ml
[19] = pH 8.0 (7.9), S1, TnI 172 ng/ml
[20] = pH 8.0 (7.9), S2, TnI 366 ng/ml
[21] = pH 8.0 (7.9), S3, TnI 1368 ng/ml
[22] = pH 8.0 (7.9), S4, TnI 11136 ng/ml
[23] = pH 8.0 (7.9), S5, TnI 27922 ng/ml
[24] = pH 8.0 (7.9), S6, TnI 10600 ng/ml
[25] = pH 9.0 (8.7), S1, TnI 172 ng/ml
[26] = pH 9.0 (8.7), S2, TnI 366 ng/ml
[27] = pH 9.0 (8.7), S3, TnI 1368 ng/ml
[28] = pH 9.0 (8.7), S4, TnI 11136 ng/ml
[29] = pH 9.0 (8.7), S5, TnI 27922 ng/ml
[30] = pH 9.0 (8.7), S6, TnI 10600 ng/ml

Question: `O=C1O[C@H]([C@@H](O)CO)C(O)=C1O` [Ascorbic Acid, Ascorbic acid] was tested. Which “Mean RLU” value (CK-MB) did it give?
Answer: 3,286,012 RLU

Question: And the S/S0 (CK-MB)?
Answer: 2173.3

Question: What about the “Ave RLUs” value (TnI; Control (7.5), S0, TnI 0 ng/ml) of the same compound?
Answer: 543 RLU

Question: What about the “Ave RLUs” value (TnI; [1]) of the same compound?
Answer: 1,013 RLU

Question: And the S/S0 (TnI; [1])?
Answer: 1.9

Question: What about the “Ave RLUs” value (TnI; [2]) of the same compound?
Answer: 1,815 RLU

Question: And the S/S0 (TnI; [2])?
Answer: 3.3

Question: And the “Ave RLUs” value (TnI; [3])?
Answer: 5,981 RLU

Question: And the S/S0 (TnI; [3])?
Answer: 11.0

Question: And the “Ave RLUs” value (TnI; [4])?
Answer: 53,524 RLU

Question: And the S/S0 (TnI; [4])?
Answer: 98.6

Question: What about the “Ave RLUs” value (TnI; [5]) of the same compound?
Answer: 155,889 RLU

Question: And the S/S0 (TnI; [5])?
Answer: 287.3

Question: What about the “Ave RLUs” value (TnI; [6]) of the same compound?
Answer: 1,235,103 RLU

Question: And the S/S0 (TnI; [6])?
Answer: 2276.0

Question: And the “Ave RLUs” value (TnI; pH 6.0 (5.9), S0, TnI 0 ng/ml)?
Answer: 273 RLU

Question: What about the “Ave RLUs” value (TnI; [7]) of the same compound?
Answer: 379 RLU

Question: And the S/S0 (TnI; [7])?
Answer: 1.4

Question: What about the “Ave RLUs” value (TnI; [8]) of the same compound?
Answer: 600 RLU

Question: What about the S/S0 (TnI; [8]) of the same compound?
Answer: 2.2

Question: And the “Ave RLUs” value (TnI; [9])?
Answer: 1,452 RLU

Question: And the S/S0 (TnI; [9])?
Answer: 5.3

Question: And the “Ave RLUs” value (TnI; [10])?
Answer: 11,579 RLU

Question: What about the S/S0 (TnI; [10]) of the same compound?
Answer: 42.4

Question: And the “Ave RLUs” value (TnI; [11])?
Answer: 32,519 RLU

Question: And the S/S0 (TnI; [11])?
Answer: 119.0

Question: What about the “Ave RLUs” value (TnI; [12]) of the same compound?
Answer: 216,379 RLU

Question: And the S/S0 (TnI; [12])?
Answer: 791.6

Question: What about the “Ave RLUs” value (TnI; pH 7.0 (7.1), S0, TnI 0 ng/ml) of the same compound?
Answer: 519 RLU

Question: And the “Ave RLUs” value (TnI; [13])?
Answer: 1,031 RLU

Question: And the S/S0 (TnI; [13])?
Answer: 2.0

Question: And the “Ave RLUs” value (TnI; [14])?
Answer: 1,703 RLU

Question: What about the S/S0 (TnI; [14]) of the same compound?
Answer: 3.3

Question: What about the “Ave RLUs” value (TnI; [15]) of the same compound?
Answer: 5,695 RLU

Question: What about the S/S0 (TnI; [15]) of the same compound?
Answer: 11.0

Question: What about the “Ave RLUs” value (TnI; [16]) of the same compound?
Answer: 57,599 RLU

Question: And the S/S0 (TnI; [16])?
Answer: 111.1

Question: And the “Ave RLUs” value (TnI; [17])?
Answer: 145,140 RLU

Question: And the S/S0 (TnI; [17])?
Answer: 279.8

Question: And the “Ave RLUs” value (TnI; [18])?
Answer: 938,075 RLU

Question: What about the S/S0 (TnI; [18]) of the same compound?
Answer: 1808.6

Question: What about the “Ave RLUs” value (TnI; pH 8.0 (7.9), S0, TnI 0 ng/ml) of the same compound?
Answer: 699 RLU

Question: And the “Ave RLUs” value (TnI; [19])?
Answer: 1,319 RLU

Question: What about the S/S0 (TnI; [19]) of the same compound?
Answer: 1.9

Question: What about the “Ave RLUs” value (TnI; [20]) of the same compound?
Answer: 2,359 RLU

Question: And the S/S0 (TnI; [20])?
Answer: 3.4

Question: And the “Ave RLUs” value (TnI; [21])?
Answer: 8,048 RLU

Question: And the S/S0 (TnI; [21])?
Answer: 11.5

Question: And the “Ave RLUs” value (TnI; [22])?
Answer: 72,016 RLU

Question: What about the S/S0 (TnI; [22]) of the same compound?
Answer: 103.1

Question: And the “Ave RLUs” value (TnI; [23])?
Answer: 225,113 RLU

Question: What about the S/S0 (TnI; [23]) of the same compound?
Answer: 322.2

Question: And the “Ave RLUs” value (TnI; [24])?
Answer: 1,574,655 RLU

Question: What about the S/S0 (TnI; [24]) of the same compound?
Answer: 2253.8

Question: What about the “Ave RLUs” value (TnI; pH 9.0 (8.7), S0, TnI 0 ng/ml) of the same compound?
Answer: 413 RLU

Question: What about the “Ave RLUs” value (TnI; [25]) of the same compound?
Answer: 716 RLU

Question: What about the S/S0 (TnI; [25]) of the same compound?
Answer: 1.7

Question: What about the “Ave RLUs” value (TnI; [26]) of the same compound?
Answer: 1,097 RLU

Question: And the S/S0 (TnI; [26])?
Answer: 2.7

Question: And the “Ave RLUs” value (TnI; [27])?
Answer: 3,999 RLU

Question: And the S/S0 (TnI; [27])?
Answer: 9.7

Question: And the “Ave RLUs” value (TnI; [28])?
Answer: 36,424 RLU

Question: And the S/S0 (TnI; [28])?
Answer: 88.1

Question: And the “Ave RLUs” value (TnI; [29])?
Answer: 107,020 RLU

Question: And the S/S0 (TnI; [29])?
Answer: 258.9

Question: What about the “Ave RLUs” value (TnI; [30]) of the same compound?
Answer: 855,956 RLU

Question: What about the S/S0 (TnI; [30]) of the same compound?
Answer: 2070.9
